Results from US9346770B2, “Compounds having activating effect on subtypes of peroxisome proliferator-activated receptors and its preparation method and uses” (ZHEJIANG HISUN PHARMACEUTICAL CO., LTD., priority 2010, dated 2016).

Legend:
Format in all cases: cell-based
[1] = biological target: PPARδ (Homo sapiens (Human), UniProt Q03181); assay: Nuclear receptor reporter gene (luciferase) screening model, PPARδ activation in HepG2 cells; conditions: for Experiment results (relative activation fold) PPARδ: HepG2, solvent control = 1; for EC50: HepG2 reporter gene, 6 concentrations; for activation effect on PPARδ receptor (in words): screening results
Excerpt: (§1) Using a reporter gene method, a screening model for screening a nuclear receptor agonist in living cells is designed on the basis of the principal that a nuclear receptor can activate transcription of its downstream gene after being activated. A reporter gene plasmid is constructed, in which the DNA binding sequence for the nuclear receptor (NRE) is inserted at the upstream of a luciferase gene, such that the expression of the luciferase gene is regulated by the nuclear receptor. The reporter gene plasmid is transferred into a cell simultaneously with the nuclear receptor. The nuclear receptor will be activated when a nuclear receptor agonist presents in the cell culture medium. The receptor being activated can induce the expression of the luciferase gene, while the amount of generated luciferase can be determined with its luminescent substrate. In this way, the intensity of activation of the nuclear receptor by the compound can be determined by observing the luminescence intensity. For the calibration of the experimental error caused by factors such as transfection efficiency, amount of inoculated cells, toxicity of the compound, etc, a GFP plasmid is co-transfected simultaneously as the internal reference. In the analysis of the experimental results, the luminescent values tested for all wells are calibrated with GFP values. The experimental results are expressed as relative activation fold, with a value of 1 for the solvent control. The greater the fold is, the higher the activation capacity represents.
(§2) The detailed procedure is described as follows:
(§3) Hepatocarcinoma cell HepG2 (from ATCC, American Type Culture Collection) was cultured in a DMEM medium supplemented with 10% heat-inactivated fetal bovine serum (FBS, Invitogen, Grand Island, N.Y., USA) in a T-75 culture flask (Greiner, Germany) placed in a 5% CO2 incubator at 37° C. and 100% relative humidity.
(§4) On the next day, when the cells in the 96-well culture plate grew up to 50-80% confluency, cell transfection was performed. The cell co-transfection system comprised FuGene6 transfection agent (Roche Molecular Biochemicals, Indianapolis, Ind., U.S.A.) and 60 ng DNA (10 ng hRXR, 10 ng pCMV βGal, 10 ng nuclear receptor expression plasmid RXR/PPARα, δ, γ, 30 ng GFP fluorescence reporter gene plasmid, respectively).
(§5) The cell culture medium was discarded immediately after 24 hours of transfection and replaced by 200 μl fresh DMEM medium containing the test medicament (with 10% FBS treated by activated carbon). The final concentration gradients of the test medicament were 10 μM, 5 μM, 1 μM, 0.1 μM, 0.01 μM, 0.001 μM, and 0 μM. 0.05 μM 2-bromostearic acid (purchased from Sigma, USA) was used as the positive control. The final concentration of DMSO in each well was 0.1%.
(§6) After 24 h treatment with the medicament, the cells were lysed with a lysis solution (Cell Culture Lysis buffer, Promega) and centrifuged, and the supernatant was collected. The supernatant was reacted with a fluorescence assay kit (Promega) and counted by a fluorometer (Ascent Fluoroskan FL reader, Thermo Labsystems, Finland), and the relative intensity of luciferase was determined. For the assay of the β-galactosidase activity used in the experiment as the internal reference (the internal reference for calibrating the transfection efficiency), 50 μl of the supernatant was transferred into a fresh microplate, treated with a Promega kit, and the value was read with a microplate reader at a wavelength of 405 nm (Bio-tech Instruments Inc., Winooski, Vt., USA) (Sauerberg, P.; Olsen, G. S.; Jeppesen, L.; Mogensen, J. P. et al., J. Med. Chem., 2007, 50, 1495-1503).
(§7) In the present screening protocol, it was calculated according to the activation of the receptor by the sample at 6 different concentrations.
(§8) The concentration-activity profile of the effects of a compound was fitted by carrying out iterative computation according to the following formula, and corresponding EC50 was calculated: […]

[2] = biological target: PPARγ (Homo sapiens (Human), UniProt P37231); assay: Nuclear receptor reporter gene (luciferase) screening model, PPARγ activation in HepG2 cells; conditions: for Experiment results (relative activation fold) PPARγ: HepG2, solvent control = 1; for EC50: HepG2 reporter gene, 6 concentrations; for activation effect on PPARγ receptor (in words): screening results
Excerpt: as §1, §2, §3, §4, §5, §6, §7, §8

[3] = biological target: PPARα (Homo sapiens (Human), UniProt Q07869); assay: Nuclear receptor reporter gene (luciferase) screening model, PPARα activation in HepG2 cells; conditions: for Experiment results (relative activation fold) PPARα: HepG2, solvent control = 1; for EC50: HepG2 reporter gene, 6 concentrations; for activation effect on PPARα receptor (in words): screening results
Excerpt: as §1, §2, §3, §4, §5, §6, §7, §8

PPARγ, sequence (P37231 whole entry, species assumed): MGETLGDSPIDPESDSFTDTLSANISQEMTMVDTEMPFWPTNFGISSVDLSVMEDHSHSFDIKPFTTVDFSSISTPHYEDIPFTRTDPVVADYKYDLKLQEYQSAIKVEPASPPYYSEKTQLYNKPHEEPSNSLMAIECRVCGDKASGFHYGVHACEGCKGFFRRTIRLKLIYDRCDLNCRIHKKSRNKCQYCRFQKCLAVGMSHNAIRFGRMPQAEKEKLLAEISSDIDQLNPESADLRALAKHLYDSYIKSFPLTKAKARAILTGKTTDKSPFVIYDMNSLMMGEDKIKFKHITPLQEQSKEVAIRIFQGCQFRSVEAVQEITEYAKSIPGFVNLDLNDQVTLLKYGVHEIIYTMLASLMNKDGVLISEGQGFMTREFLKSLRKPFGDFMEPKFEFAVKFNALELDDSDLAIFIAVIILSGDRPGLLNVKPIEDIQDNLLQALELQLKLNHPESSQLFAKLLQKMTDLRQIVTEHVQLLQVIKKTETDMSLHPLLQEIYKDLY
PPARγ, sequence (P19793 whole entry partner, species assumed): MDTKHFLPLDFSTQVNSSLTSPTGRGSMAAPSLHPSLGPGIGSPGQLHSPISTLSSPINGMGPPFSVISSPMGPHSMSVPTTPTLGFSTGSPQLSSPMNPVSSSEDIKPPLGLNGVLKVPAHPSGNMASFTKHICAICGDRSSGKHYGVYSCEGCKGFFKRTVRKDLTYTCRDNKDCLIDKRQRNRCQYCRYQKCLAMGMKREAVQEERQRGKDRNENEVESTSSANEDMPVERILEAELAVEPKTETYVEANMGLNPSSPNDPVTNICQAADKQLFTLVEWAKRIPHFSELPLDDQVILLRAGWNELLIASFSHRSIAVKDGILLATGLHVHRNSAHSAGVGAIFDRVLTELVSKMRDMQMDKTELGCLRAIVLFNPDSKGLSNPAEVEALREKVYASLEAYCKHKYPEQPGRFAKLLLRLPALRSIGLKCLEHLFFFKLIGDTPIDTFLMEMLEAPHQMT
PPARα, sequence (Q07869 whole entry, species assumed): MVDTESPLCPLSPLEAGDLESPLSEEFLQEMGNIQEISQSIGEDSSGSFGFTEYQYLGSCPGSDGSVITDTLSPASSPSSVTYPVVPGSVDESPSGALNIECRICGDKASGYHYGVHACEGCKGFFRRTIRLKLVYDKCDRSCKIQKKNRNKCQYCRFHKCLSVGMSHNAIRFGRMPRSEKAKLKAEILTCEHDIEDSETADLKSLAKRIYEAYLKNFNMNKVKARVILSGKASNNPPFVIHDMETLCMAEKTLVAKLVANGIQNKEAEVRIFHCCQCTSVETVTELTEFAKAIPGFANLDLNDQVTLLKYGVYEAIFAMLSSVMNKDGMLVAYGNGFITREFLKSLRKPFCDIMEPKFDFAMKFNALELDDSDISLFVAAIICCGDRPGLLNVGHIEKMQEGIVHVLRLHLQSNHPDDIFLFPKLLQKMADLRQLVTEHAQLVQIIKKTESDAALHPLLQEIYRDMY
PPARα, sequence (P19793 whole entry partner, species assumed): as the sequence (P19793 whole entry partner, species assumed) above
PPARδ, sequence (Q03181 whole entry, species assumed): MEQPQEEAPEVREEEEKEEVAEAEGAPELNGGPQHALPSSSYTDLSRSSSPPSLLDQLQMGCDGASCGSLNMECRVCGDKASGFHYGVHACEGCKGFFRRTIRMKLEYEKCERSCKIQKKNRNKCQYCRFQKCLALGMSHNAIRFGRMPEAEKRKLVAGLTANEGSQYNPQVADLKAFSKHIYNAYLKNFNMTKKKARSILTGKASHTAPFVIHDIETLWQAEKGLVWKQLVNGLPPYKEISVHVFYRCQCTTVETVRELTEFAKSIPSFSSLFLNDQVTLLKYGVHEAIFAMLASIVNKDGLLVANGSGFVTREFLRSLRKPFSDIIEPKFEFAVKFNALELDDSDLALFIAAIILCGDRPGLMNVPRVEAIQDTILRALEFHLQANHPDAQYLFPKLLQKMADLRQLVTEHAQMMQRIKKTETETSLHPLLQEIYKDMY
PPARδ, sequence (P19793 whole entry partner, species assumed): as the sequence (P19793 whole entry partner, species assumed) above

Structure (SMILES) | Experiment results (relative activation fold) PPARδ ([1]; 0.001 uM) | Experiment results (relative activation fold) PPARδ ([1]; 0.01 uM) | Experiment results (relative activation fold) PPARδ ([1]; 0.1 uM) | Experiment results (relative activation fold) PPARδ ([1]; 1 uM) | Experiment results (relative activation fold) PPARδ ([1]; 5 uM) | Experiment results (relative activation fold) PPARδ ([1]; 10 uM) | EC50 [1] | Experiment results (relative activation fold) PPARγ ([2]; 0.001 uM) | Experiment results (relative activation fold) PPARγ ([2]; 0.01 uM) | Experiment results (relative activation fold) PPARγ ([2]; 0.1 uM) | Experiment results (relative activation fold) PPARγ ([2]; 1 uM) | Experiment results (relative activation fold) PPARγ ([2]; 5 uM) | Experiment results (relative activation fold) PPARγ ([2]; 10 uM) | EC50 [2] | Experiment results (relative activation fold) PPARα ([3]; 0.001 uM) | Experiment results (relative activation fold) PPARα ([3]; 0.01 uM) | Experiment results (relative activation fold) PPARα ([3]; 0.1 uM) | Experiment results (relative activation fold) PPARα ([3]; 1 uM) | Experiment results (relative activation fold) PPARα ([3]; 5 uM) | Experiment results (relative activation fold) PPARα ([3]; 10 uM) | other results
CCc1cc(OCCc2nc(-c3ccc([N+](=O)[O-])cc3)oc2C)ccc1CCC(=O)O [Compound 7] | 1.66 fold | 2.72 fold | 2.99 fold | 3.70 fold | 3.60 fold | 3.38 fold | 0.003 µM | 1.29 fold | 1.86 fold | 3.30 fold | 3.80 fold | 4.08 fold | 4.35 fold | 0.025 µM | 1.15 fold | 1.32 fold | 1.42 fold | 1.55 fold | 1.66 fold | 1.94 fold | EC50 [3]: 2.88 µM
CCc1cc(OCCc2nc(-c3ccc(C(F)(F)F)cc3)oc2C)ccc1CCC(=O)O [Compound 3] | 1.11 fold | 1.17 fold | 1.22 fold | 1.34 fold | 1.50 fold | 1.94 fold | < 0.001 µM | 1.10 fold | 1.30 fold | 1.32 fold | 1.56 fold | 1.78 fold | 2.06 fold | 0.005 µM | 0.99 fold | 1.11 fold | 1.19 fold | 1.28 fold | 1.33 fold | 1.79 fold | activation effect on PPARδ receptor (in words) [1]: better activation effects; activation effect on PPARγ receptor (in words) [2]: better activation effects; EC50 [3]: 0.004 µM; activation effect on PPARα receptor (in words) [3]: better activation effects
CCc1cc(OCCc2nc(-c3ccc(C(N)=O)cc3)oc2C)ccc1CCC(=O)O [Compound 9] | 1.18 fold | 1.40 fold | 2.25 fold | 3.38 fold | 4.08 fold | 3.92 fold | 0.331 µM | 1.09 fold | 1.51 fold | 3.20 fold | 4.34 fold | 5.04 fold | 4.26 fold | 0.047 µM | 1.25 fold | 1.17 fold | 1.32 fold | 1.56 fold | 1.63 fold | 1.81 fold | EC50 [3]: 1.15 µM
CCc1cc(OCCc2nc(-c3ccc(C(C)(C)C)cc3)oc2C)ccc1CCC(=O)O [Compound 4] | 1.45 fold | 1.53 fold | 2.25 fold | 3.51 fold | 4.22 fold | 4.60 fold | 0.851 µM | 2.70 fold | 3.78 fold | 3.81 fold | 5.17 fold | 4.19 fold | 5.88 fold | 0.089 µM | 1.14 fold | 1.20 fold | 1.18 fold | 1.65 fold | 2.31 fold | 2.96 fold | EC50 [3]: 5.5 µM
CCc1cc(OCCc2nc(-c3ccc(-c4nnn[nH]4)cc3)oc2C)ccc1CCC(=O)O [Compound 6] | 0.99 fold | 0.87 fold | 1.09 fold | 1.11 fold | 1.27 fold | 1.63 fold | 6.76 µM | 0.92 fold | 1.02 fold | 1.04 fold | 1.74 fold | 1.63 fold | 2.53 fold | 6.76 µM | 1.33 fold | 1.23 fold | 1.27 fold | 1.53 fold | 1.76 fold | 1.96 fold | EC50 [3]: 2.63 µM
CCc1cc(OCCc2nc(-c3ccc(F)cc3)oc2C)ccc1CCC(=O)O [Compound 1, 3-(2-ethyl-4-{2-[2-(4-fluorophenyl)-5-methyloxazol-4-yl]ethoxyl}phenyl)propionic acid] | 1.07 fold | 1.12 fold | 1.19 fold | 1.40 fold | 1.33 fold | 1.80 fold | 0.029 µM | 1.09 fold | 1.21 fold | 1.26 fold | 1.45 fold | 1.62 fold | 2.01 fold | 0.013 µM | 1.00 fold | 1.08 fold | 1.12 fold | 1.36 fold | 1.35 fold | 1.72 fold | activation effect on PPARδ receptor (in words) [1]: better activation effects; activation effect on PPARγ receptor (in words) [2]: better activation effects; EC50 [3]: 0.029 µM; activation effect on PPARα receptor (in words) [3]: better activation effects
